# Measured values reported in US20220033623A1, “CONJUGATES OF HYALURONIC ACID AND AMINOBISPHOSPHONATES AND THE THERAPEUTIC USE THEREOF” (FIDIA FARMACEUTICI S.P.A., priority 2018, published 2022).
# Where two headings read alike, the source gives them in different places.
# Legend:
# [1] = tested on: primary bovine chondrocytes; conditions: for cytotoxic effect: 7 days
# Method: The ability of the conjugate to release alendronate in a controlled way and also to have an effect on cartilage tissue was evaluated by in vitro testing on primary bovine chondrocytes.
# (§1) 1) a control group, wherein the cells were neither treated nor stimulated;
# (§2) Each sample was tested in four replications.
# Saos-2 osteoblasts = conditions: for cell viability: 3 days of incubation, % of that of the control, FIG. 4A
# Method: The cells were then seeded at the concentration of 1×10^4 cells/well in 96-well Multiwell plates (Sarstedt, cat. no. 83,3924, Germany) and divided into three groups:
# as §1, §2
# [2] = Rheological properties: viscoelastic moduli (frequency sweep) after adding CaCl2; format: physicochemical; conditions: 20 mg/mL in 0.1 M TRIS pH 7, alendronate 2.4 mg/mL, CaCl2 2 mg/mL, 20° C, 0.1-100 rad/s; FIG. 2
smiles,measurement,setting,value
NCCCC(O)(P(=O)(O)O)P(=O)(O)O [alendronate],onset of the effect on the cells,[1],acts on the primary bovine chondrocytes after only 72 hours of incubation
same,cytotoxic effect,[1]; 50 μM,maximum cytotoxic effect
same,cytotoxic effect,[1]; 100 μM,maximum cytotoxic effect
same,cell viability,"Saos-2 osteoblasts; Saos-2, 50 μM",< 70%
same,cell viability,"Saos-2 osteoblasts; Saos-2, 100 μM",< 70%
same,cytotoxicity as a function of incubation period,"Saos-2 osteoblasts; Saos-2, 3 versus 7 days",increases significantly in proportion to the incubation period
same,"viscoelastic moduli G′ (elastic) and G″ (viscous), comparison in words",[2],no effect on rheological behaviour
